According to patent US20230061736A1, “GPR119 AGONISTS” (Kallyope, Inc., priority 2019, published 2023):

Molecular target: T1, human GPR119 (hGPR119) (Homo sapiens, UniProt Q8TDV5)
T1 construct: expressed in transfected cells
T1 sequence (Q8TDV5 1-335): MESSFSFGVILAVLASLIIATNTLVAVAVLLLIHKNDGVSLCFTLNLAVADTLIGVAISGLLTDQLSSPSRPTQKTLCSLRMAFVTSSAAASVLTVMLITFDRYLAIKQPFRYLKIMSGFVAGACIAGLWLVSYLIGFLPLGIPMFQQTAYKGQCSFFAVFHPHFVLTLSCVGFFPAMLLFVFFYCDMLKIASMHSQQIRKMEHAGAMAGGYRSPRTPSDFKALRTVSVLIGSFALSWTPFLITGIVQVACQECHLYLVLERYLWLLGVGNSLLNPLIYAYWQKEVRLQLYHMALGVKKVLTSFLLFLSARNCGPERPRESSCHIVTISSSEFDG
Experiment: cAMP accumulation assay (cAMP Gs dynamic HTRF kit)
Type: cell-based
Conditions: CHO-K1 cells stably expressing hGPR119, 4-parameter fit; for Emax: 1 h, % activity normalized to Max/Min controls; for EC50: cAMP accumulation
Procedure, shortened: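 Read-out is HTRF 665/620 nm ratio after 1 h detection at ambient temperature, converted to % activity against positive and negative controls, EC50 and Max activity by 4-parameter fit. Compounds were titrated onto ~10,000 thawed hGPR119-CHO-K1 cells/well for 60 min at 37° C/5% CO2.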

SMILES	Emax	EC50
CCCc1cnc(N2CCC(CCCOc3ccc(CC(=O)N4CC(CNC[C@H](O)[C@@H](O)[C@H](O)[C@H](O)CO)C4)c(F)c3)CC2)nc1 [Example 74, 2-(2-fluoro-4-(3-(1-(5-propylpyrimidin-2-yl)piperidin-4-yl)propoxy)phenyl)-1-(3-((((2S,3R,4R,5R)-2,3,4,5,6-pentahydroxyhexyl)amino)methyl)azetidin-1-yl)ethan-1-one]	≥ 130%	100 to 1000 nM
O=C(Cc1c(F)cc(OCCCCC2CCN(c3ncc(Cl)cn3)CC2)cc1F)N1CC(CNC[C@H](O)[C@@H](O)[C@H](O)[C@H](O)CO)C1 [Example 55, 2-(4-(4-(1-(5-chloropyrimidin-2-yl)piperidin-4-yl)butoxy)-2,6-difluorophenyl)-1-(3-((((2S,3R,4R,5R)-2,3,4,5,6-pentahydroxyhexyl)amino)methyl)azetidin-1-yl)ethan-1-one]	≥ 130%	100 to 1000 nM
O=C(NC(CO)(CO)CO)C1CN(C(=O)Cc2c(F)cc(OCCCC3CCN(c4ncc(Cl)cn4)CC3)cc2F)C1 [Example 26, 1-[2-[4-[3-[1-(5-chloropyrimidin-2-yl)-4-piperidyl]propoxy]-2,6-difluoro-phenyl]acetyl]-N-[2-hydroxy-1,1-bis(hydroxymethyl)ethyl]azetidine-3-carboxamide]	≥ 130%	≤ 100 nM
CCCc1cnc(N2CCC(CCCOc3cc(F)c(CC(=O)N4CC(CNC(CO)(CO)CO)C4)c(F)c3)CC2)nc1 [Example 76, 2-(2,6-difluoro-4-(3-(1-(5-propylpyrimidin-2-yl)piperidin-4-yl)propoxy)phenyl)-1-(3-(((1,3-dihydroxy-2-(hydroxymethyl)propan-2-yl)amino)methyl)azetidin-1-yl)ethan-1-one]	≥ 130%	≤ 100 nM
NS(=O)(=O)CCCNC(=O)Cc1ccc(OCCCC2CCN(c3ncc(Cl)cn3)CC2)cc1F [Example 13, 2-[4-[3-[1-(5-chloropyrimidin-2-yl)-4-piperidyl]propoxy]-2-fluoro-phenyl]-N-(3-sulfamoylpropyl)acetamide]	≥ 130%	≤ 100 nM

Second part, the compound after the results:

Emax	EC50	SMILES
100 to 130%	≤ 100 nM	O=C(Cc1ccc(OCC2CC(C3CCN(c4ncc(Cl)cn4)CC3)C2)cc1F)N1CC(CNC[C@H](O)[C@@H](O)[C@H](O)[C@H](O)CO)C1 (stereo partly drawn) [Example 120, 2-[4-[ [3-[1-(5-chloropyrimidin-2-yl)-4-piperidyl]cyclobutyl]methoxy]-2-fluoro-phenyl]-1-[3-[[[(2S,3R,4R,5R)-2,3,4,5,6-pentahydroxyhexyl]amino]methyl]azetidin-1-yl]ethanone]
100 to 130%	≤ 100 nM	O=C(Cc1ccc(OCCCC2CCN(c3ncc(Cl)cn3)CC2)cc1F)N1CCC(O)(CNCC(CO)(CO)CO)CC1 [Example 183, 2-[4-[3-[1-(5-chloropyrimidin-2-yl)-4-piperidyl]propoxy]-2-fluoro-phenyl]-1-[4-hydroxy-4-[[[3-hydroxy-2,2-bis (hydroxymethyl)propyl]amino]methyl]-1-piperidyl]ethanone]
100 to 130%	≤ 100 nM	O=C(NCCCS(=O)(=O)O)C1CN(C(=O)Cc2ccc(OCCCC3CCN(c4ncc(Cl)cn4)CC3)cc2F)C1 [Example 172, 3-[[1-[2-[4-[3-[1-(5-chloropyrimidin-2-yl)-4-piperidyl]propoxy]-2-fluoro-phenyl]acetyl]azetidine-3-carbonyl]amino]propane-1-sulfonic acid]
≥ 130%	100 to 1000 nM	CCCc1cnc(N2CCC(CCCOc3cc(F)c(CC(=O)N4CC(CNCCNC(=O)NC(CO)(CO)CO)C4)c(F)c3)CC2)nc1 [Example 77, 1-(2-(((1-(2-(2,6-difluoro-4-(3-(1-(5-propylpyrimidin-2-yl)piperidin-4-yl)propoxy)phenyl)acetyl)azetidin-3-yl)methyl)amino)ethyl)-3-(1,3-dihydroxy-2-(hydroxymethyl)propan-2-yl)urea]
